{"source": "patent US6602914B2", "about": "“Compounds and methods for the inhibition of the expression of VCAM-1” (AtheroGenics, Inc., priority 1997, dated 2003)", "tested_on": "ApoB/HepG2", "test": "Lipid Screen & IC50 Determination Protocol: ApoB ELISA of HEPG2 media", "type": "cell-based, human", "details": "HEPG2, 24 hours; for IC50: bare number = IC50, NE not defined in the patent, read-out: ApoB/HepG2 IC50 or % inhibition at [μM]: IC50", "experimental": "HEPG2 cell was started in 10 ml of MEM, 10% FBS, 1 mM Sodium Pyruvate. The cells were incubated in a tissue culture incubator. The cells were split into 4×96-wells plate in MEM, 10% FBS, 1 mM Sodium Pyruvate and allowed to grow to about 50% confluency and then removed.\nThe cells were treated with the desired concentration of compounds in 100 μl DMEM, 1% RSA for 24 hours. The compounds are dissolved in DMSO.\nOn the same day, 4×96-wells NuncImmunoSorb plate is coated with 100 μl of mouse anti-human ApoB monoclonal 1D1 (1:1000 dilution in 1×PBS, pH 7.4). The coating is allowed overnight.\nThe coated plate is washed 3 times with 1×PBS, pH 7.4, −0.05% Tween 20. 100 μl of the standards is added to the selected wells. ApoB standards are prepared at 6.25, 3.12, 1.56, 0.78, 0.39 ng, and each concentration is done in triplicates. For samples:\n90 μl of 1×PBS, pH 7.4, −0.05% Tween 20 is added to each well corresponding to the sample. 10 μl of media is transferred from the treated HEPG2 plates to the ApoB ELISA plate. The plate is incubated at room temperature for 2 hours, rocking gently.\nWash the coated plate 3× with 1×PBS, pH 7.4, −0.05% Tween 20. Add 100 μl of sheep anti-human ApoB polyclonal from Boehringer Mannheim. (1:2000 dilution in 1×PBS, pH 7.4, −0.05% Tween 20) from Boehringer Mannheim. Incubate at room temperature for 1 hour, rocking gently. Wash the coated plate 3× with 1×PBS, pH 7.4, −0.05% Tween 20. Add 100 μl of rabbit anti-sheep IgG (1:2000 dilution in 1×PBS, pH 7.4, −0.05% Tween 20). Incubate at room temperature for 1 hour, rocking gently. Wash the coated plate 3× with 1×PBS, pH 7.4, −0.05% Tween 20. Add 100 μl of substrate (10 ml of distilled water, 100 μl of TMB (10 mg/ml), and 1 μl of hydrogen peroxide). Allow color to emerge and stop reaction with 25 ul of 8N sulfuric acid. Wells are read with MicroPlate Reader @ […]. Graph accumulation of ApoB in media as a percentage of control for each sample and their concentration. A determination of IC50 is obtained from the graph.\nThe degree of inhibition of the compounds of formulas (I) and (II) was determined by the assays described in Examples 62-64.", "data": [{"compound": "CC(C)(Sc1cc(C(C)(C)C)c(O)c(C(C)(C)C)c1)Sc1cc(C(C)(C)C)c(OCC(=O)N[C@@H](CCC(=O)O)C(=O)O)c(C(C)(C)C)c1", "note": "[Glutamic acid, N-[[4-[[1-[[3,5-bis(1,1-dimethylethyl)-4-hydroxyphenyl]thio]-1-methylethyl]thio]-2,6-bis(1,1-dimethylethyl)phenoxy]acetyl]-]", "values": [{"measurement": "inhibition at 15 µM", "setting": "Homo sapiens, at 15 μM", "value": 94, "unit": "%"}]}, {"compound": "CC(C)(Sc1cc(C(C)(C)C)c(O)c(C(C)(C)C)c1)Sc1cc(C(C)(C)C)c(OC(=O)CCCO)c(C(C)(C)C)c1", "note": "[Butanoic acid, 4-hydorxy-, 4-[[1-[[3,5-bis(1,1-dimethylethyl)-4-hydroxyphenyl]thio]-1-methylethyl]thio]-2,6-bis(1,1-dimethylethyl)phenyl ester]", "values": [{"measurement": "ApoB/HepG2 % inhibition at [μM]", "setting": "at 15 μM", "value": 81, "unit": "% at 15"}]}, {"compound": "CC(C)(Sc1cc(C(C)(C)C)c(O)c(C(C)(C)C)c1)Sc1cc(C(C)(C)C)c(OC(=O)CCC(=O)O)c(C(C)(C)C)c1.N=C(N)NCCC[C@H](N)C(=O)O", "note": "[L-Arginine, mono[4-[[1-[[3,5-bis(1,1-dimethylethyl)-4-hydroxyphenyl]thio]-1-methylethyl]thio]-2,6-bis(1,1-dimethylethyl)phenyl butanedioate]]", "values": [{"measurement": "ApoB/HepG2 % inhibition at [μM]", "setting": "at 15 μM", "value": 93, "unit": "% at 15"}]}, {"compound": "CCCCC(OC(C)=O)Sc1cc(C(C)(C)C)c(O)c(C(C)(C)C)c1", "note": "(stereo not shown) [2,6-di-tert-butylthio((1′-(acetoxy))pentyl)phenol]", "values": [{"measurement": "IC50", "value": 30, "unit": "µM"}]}, {"compound": "COc1c(C(C)(C)C)cc(SC(C)(C)Sc2cc(C(C)(C)C)c(OC(=O)CCC(=O)O)c(C(C)(C)C)c2)cc1C(C)(C)C", "note": "[Butanedioic acid, mono[4-[[1-[[3,5-bis(1,1-dimethylethyl)-4-methoxyphenyl]thiol]1-methylethyl]thiol-2,6-bis(1,1-dimethylethyl)phenyl] ester]", "values": [{"measurement": "ApoB/HepG2 % inhibition at [μM]", "setting": "at 15 μM", "value": 89, "unit": "% at 15"}]}, {"compound": "CC(C)(CO)CC(=O)Oc1c(C(C)(C)C)cc(SC(C)(C)Sc2cc(C(C)(C)C)c(O)c(C(C)(C)C)c2)cc1C(C)(C)C", "note": "[Butanoic acid, 4-hydroxy-3,3-dimethyl-, 4-[[1-[[3,5-bis(1,1-dimethylethyl)-4-hydroxyphenyl]thio]-1-methylethyl]thio]-2,6-bis(1,1-dimethylethyl)phenyl ester]", "values": [{"measurement": "inhibition at 15 µM", "setting": "Homo sapiens, at 15 μM", "value": 90, "unit": "%"}]}, {"compound": "CC(C)(Sc1ccc(OCCCC(=O)O)cc1)Sc1cc(C(C)(C)C)c(O)c(C(C)(C)C)c1", "note": "[Butanoic acid, 4-[4-[[1-[[3,5-bis(1,1-dimethylethyl)-4-hydroxyphenyl]thio]-1-methylethyl]thio]phenoxy]-]", "values": [{"measurement": "inhibition at 15 µM", "setting": "Homo sapiens, at 15 μM", "value": 47, "unit": "%"}]}, {"compound": "CC(C)(Sc1cc(C(C)(C)C)c(O)c(C(C)(C)C)c1)Sc1cc(C(C)(C)C)c(OC(=O)c2ccc([N+](=O)[O-])o2)c(C(C)(C)C)c1", "note": "[2-Furancarboxylic acid, 5-nitro-, 4-[[1-[[3,5-bis(1,1-dimethylethyl)-4-hydroxyphenyl]thio]-1-methylethyl]thio]-2,6-bis(1,1-dimethylethyl)phenyl ester]", "values": [{"measurement": "inhibition at 15 µM", "setting": "Homo sapiens, at 15 μM", "value": 17, "unit": "%"}]}, {"compound": "1,2,3-Butanetriol, 4-[4-[[1-[[3,5-bis(1,1-dimethylethyl)-4-hydroxyphenyl]thio]=1-methylethyl]thio]-2,6-bis(1,1-dimethylethyl)phenoxy]-2-hydroxypropyl]-", "values": [{"measurement": "ApoB/HepG2 % inhibition at [μM]", "setting": "at 1 μM", "value": 6, "unit": "% at 1"}]}, {"compound": "CC(C)(Sc1cc(C(C)(C)C)c(O)c(C(C)(C)C)c1)Sc1cc(C(C)(C)C)c(OCC(=O)NCC(=O)O)c(C(C)(C)C)c1", "note": "[Glycine, N-[[4-[[1-[[3,5-bis(1,1-dimethylethyl)-4-hydroxyphenyl]thio]-1,methylethyl]thio]-2,6-bis(1,1-dimethylethyl)phenoxylacetyl]-]", "values": [{"measurement": "ApoB/HepG2 % inhibition at [μM]", "setting": "at 15 μM", "value": 83, "unit": "% at 15"}]}, {"compound": "Cc1cc(SC(C)(C)Sc2cc(C(C)(C)C)c(O)c(C(C)(C)C)c2)cc(C)c1OCCCC(=O)O", "note": "[Butanoic acid, 4-[4-[[1-[[3,5-bis(1,1-dimethylethyl)-4-hydroxyphenyl]thio]-1-methylethyl]thio]2,6-dimethylphenoxy]-]", "values": [{"measurement": "inhibition at 15 µM", "setting": "Homo sapiens, at 15 μM", "value": 41, "unit": "%"}]}, {"compound": "CC(C)(Sc1cc(C(C)(C)C)c(O)c(C(C)(C)C)c1)Sc1cc(C(C)(C)C)c(OCCCC(=O)O)c(C(C)(C)C)c1", "note": "[Butanoic acid, 4-[4-[[1-[[3,5-bis(1,1-dimethylethyl)4-hydroxyphenyl]thio]-1-methylethyl]thio]-2,6-bis(1,1-dimethylethyl)phenoxy]-]", "values": [{"measurement": "inhibition at 15 µM", "setting": "Homo sapiens, at 15 μM", "value": 77, "unit": "%"}]}, {"compound": "CC(C)(Sc1cc(C(C)(C)C)c(O)c(C(C)(C)C)c1)Sc1cc(C(C)(C)C)c(OCC(O)CNCC(=O)O)c(C(C)(C)C)c1", "note": "(stereo not shown) [Glycine, N-[3-[4-[[1-[(3,5-bis(1,1-dimethylethyl)-4-hydroxyphenyl]thio]-1-methylethyl]thio]-2,6-bis(1,1-dimethylethyl)phenoxy]2-hydroxypropyl]-]", "values": [{"measurement": "inhibition at 15 µM", "setting": "Homo sapiens, at 15 μM", "value": 45, "unit": "%"}]}, {"compound": "CC(C)(Sc1cc(C(C)(C)C)c(O)c(C(C)(C)C)c1)Sc1cc(C(C)(C)C)c(OCC(O)CO)c(C(C)(C)C)c1", "note": "(stereo not shown) [1,2-Propanediol, 3-[4-[[1-[[3,5-bis(1,1-dimethylethyl)-4-hydroxyphenyl]thio]-1-methylethyl]thio]-2,6-bis(1,1-dimethylethyl)phenoxy]-]", "values": [{"measurement": "inhibition at 15 µM", "setting": "Homo sapiens, at 15 μM", "value": 40, "unit": "%"}]}, {"compound": "CC(C)(Sc1cc(C(C)(C)C)c(O)c(C(C)(C)C)c1)Sc1cc(C(C)(C)C)c(OC(=O)CN)c(C(C)(C)C)c1", "note": "[Glycine, 4-[[1-[[3,5-bis(1,1-dimethylethyl)-4-hydroxyphenyl]thio]-1-methylethyl]thio]-2,6-bis(1,1-dimethylethyl)phenyl ester]", "values": [{"measurement": "inhibition at 5 µM", "setting": "Homo sapiens, at 5 μM", "value": 30, "unit": "%"}]}, {"compound": "COc1c(C(C)(C)C)cc(SCc2ccc(C(F)(F)F)cc2)cc1C(C)(C)C", "note": "[2,6-di-tert-butyl-1-methoxy-4-thio(4′-trifluoromethyl)benzyl)benzene]", "values": [{"measurement": "IC50", "value": "< 10", "unit": "µM"}]}]}
